These results are taken from US20220275391A1, “METHODS OF USING ALS INHIBITOR HERBICIDES FOR CONTROL OF UNWANTED VEGETATION IN ALS INHIBITOR HERBICIDE TOLERANT BETA VULGARIS PLANTS” (priority 2010, published 2022).

One data set concerns SB574TL based sugar beet. Description: Field trial, phytotoxicity scoring on homozygous SB574TL mutant sugar beet. It counts as in vivo, Beta vulgaris. Particulars: BBCH 14. An excerpt:
Based on SB574TL, F4—F6 seeds conferring the mutant allele of the endogenous ALS gene in the homozygous state were applied for further testing.

In the next data set the test system is KLARINA. Description: Field trial, phytotoxicity scoring on ALS inhibitor sensitive reference variety KLARINA. As to conditions: BBCH 14.
In a further data set the test system is BERETTA. Description: Field trial, phytotoxicity scoring on ALS inhibitor sensitive reference variety BERETTA. Format: in vivo, Beta vulgaris. Particulars: BBCH 14.
For data set [1], the system named is regenerated plants from foramsulfuron tolerant cell culture (SB574TL). Description: Greenhouse herbicide treatment of plants regenerated from the foramsulfuron tolerant cell culture. Particulars: highest doses tested (range 7-70 g a.i./ha foramsulfuron, 1-10 g a.i./ha iodosulfuron-methyl-sodium, mixtures in the ratio 7:1); greenhouse. The protocol:
From this clone (SB574TL), shoots were regenerated in presence of the ALS inhibitor herbicide and then the shoots were transferred to MS medium containing 0.05 mg/l Naphthalene acetic acid (NAA).
(§1) During the first 10-15 days after transfer into soil containing substrate the plants were kept in an environment with high air humidity. During and after they were weaned to normal greenhouse air humidity regimes the plants were kept in the greenhouse under artificial light (12 h) at 20+−3° C./15+−2° C. day/night temperatures.
(§2) The herbicide doses tested were equivalent to 7-70 g a.i./ha for foramsulfuron and 1-10 g a.i./ha for iodosulfuron-methyl-sodium.

In another data set the test system is wild type plants. In words: Greenhouse herbicide treatment of plants regenerated from wild type cell cultures. As to conditions: lowest doses tested (range 7-70 g a.i./ha foramsulfuron, 1-10 g a.i./ha iodosulfuron-methyl-sodium, mixtures 7:1). How it is done: as §1, §2

Excerpt for BERETTA: (§3) The water quantity applied in the various applications equaled 200 l/ha. At 8, 14, 16, 17, 28, and 31 days (as indicated in the various Tables) after application (DAA) of the respective ALS inhibitor herbicide(s), the damages (phytotoxicity/phyto) on the different sugar beet plants were scored according to the scale from 0% to 100%.
(§4) In this context, “0%” means “no phytotoxicity/phyto” and “100%” means plants were completely killed.
Excerpt for KLARINA: as §3, §4

Take `COc1nc(C)nc(NC(=O)NS(=O)(=O)c2ccccc2I)n1.[Na]` [(A1-41), 2-iodo-N-[(4-methoxy-6-methyl-1,3,5-triazinyl)carbamoyl]benzene-sulfonamide sodium salt]: the “% phyto” value with SB574TL based sugar beet (30 g/ha, 8 days) came out at 14%; with SB574TL based sugar beet (30 g/ha, 14 days), 10%; in the data set on SB574TL based sugar beet (30 g/ha, 28 days), 0%; with KLARINA (30 g/ha, 8 days), 90%; in the data set with KLARINA (30 g/ha, 14 days) it was 98%; in the data set with KLARINA (30 g/ha, 28 days) it was 100%.

Take `COc1cc(OC)nc(NC(=O)NS(=O)(=O)c2ncccc2C2=NOCCO2)n1.[Na+]` [(A1-87)]: the “% phyto” value in the data set on SB574TL based sugar beet (15 g/ha, 8 days) was determined as 0%; with SB574TL based sugar beet (15 g/ha, 14 days), 0%; in the data set on SB574TL based sugar beet (15 g/ha, 28 days), 0%; in the data set on SB574TL based sugar beet (30 gai/ha, 8 DAA), 0%; in the data set on SB574TL based sugar beet (30 gai/ha, 17 DAA) it was 0%; in the data set with SB574TL based sugar beet (30 gai/ha, 31 DAA), 0%. The “% phyto” value in the data set on KLARINA (15 g/ha, 8 days) was 90%; with KLARINA (15 g/ha, 14 days), 97%; in the data set on KLARINA (15 g/ha, 28 days), 99%; in the data set with KLARINA (30 gai/ha, 8 DAA), 83%; in the data set with KLARINA (30 gai/ha, 17 DAA), 100%; in the data set on KLARINA (30 gai/ha, 31 DAA), 100%.

With `COc1cc(OC)nc(Oc2cccc(Oc3nc(OC)cc(OC)n3)c2C(=O)O)n1` [Bispyribac-sodium (C1-1), bispyribac-sodium], the “% phyto” value turned out to be 23% in the data set with SB574TL based sugar beet (50 g/ha, 8 days); 30% in the data set with SB574TL based sugar beet (50 g/ha, 14 days); 0% in the data set on SB574TL based sugar beet (50 g/ha, 28 days); 90% in the data set on KLARINA (50 g/ha, 8 days); 98% with KLARINA (50 g/ha, 14 days); 99% with KLARINA (50 g/ha, 28 days).

Turning to `COc1ncc(F)c2nc(S(=O)(=O)Nc3c(F)cccc3F)nn12` [Florasulam (A3-3), florasulam], the “% phyto” value in the data set with SB574TL based sugar beet (10 g/ha, 8 days (Table 3)) is listed as 0%; with SB574TL based sugar beet (10 g/ha, 16 days), 0%; in the data set on SB574TL based sugar beet (10 g/ha, 38 days), 0%; in the data set on BERETTA (10 g/ha, 8 days) it was 80%; with BERETTA (10 g/ha, 16 days), 98%; in the data set on BERETTA (10 g/ha, 38 days), 98%.

`COc1nn(C(=O)[N-]S(=O)(=O)c2ccccc2OC(F)(F)F)c(=O)n1C.[Na+]` [Flucarbazone-sodium (A2-1), flucarbazone-sodium]: the “% phyto” value in the data set with SB574TL based sugar beet (40 g/ha, 8 days (Table 3)) amounted to 0%; in the data set with SB574TL based sugar beet (40 g/ha, 16 days), 0%; in the data set with SB574TL based sugar beet (40 g/ha, 38 days) it was 0%; in the data set on BERETTA (40 g/ha, 8 days) it was 80%; in the data set on BERETTA (40 g/ha, 16 days) it was 89%; in the data set on BERETTA (40 g/ha, 38 days), 89%.

For the compound `COCc1cnc(C2=NC(C)(C(C)C)C(=O)N2)c(C(=O)O)c1` (centres unmarked) [Imazamox (B1-2), imazamox], the “% phyto” value with SB574TL based sugar beet (40 g/ha, 8 days) is reported as 0%; in the data set with SB574TL based sugar beet (40 g/ha, 14 days), 0%; with SB574TL based sugar beet (40 g/ha, 28 days), 0%; with KLARINA (40 g/ha, 8 days) it was 90%; in the data set with KLARINA (40 g/ha, 14 days), 97%; in the data set with KLARINA (40 g/ha, 28 days), 99%.

For the compound `CC(C)C1(C)N=C(c2nc3ccccc3cc2C(=O)O)NC1=O` (centres unmarked) [Imazaquin (B1-5), imazaquin], the “% phyto” value in the data set on SB574TL based sugar beet (100 g/ha, 8 days (Table 3)) is reported as 0%; in the data set on SB574TL based sugar beet (100 g/ha, 16 days) it was 0%; with SB574TL based sugar beet (100 g/ha, 38 days), 0%; in the data set with BERETTA (100 g/ha, 8 days), 80%; in the data set on BERETTA (100 g/ha, 16 days), 98%; in the data set with BERETTA (100 g/ha, 38 days), 100%.

With `COC(=O)c1ccc(I)cc1S(=O)(=O)[N-]C(=O)Nc1nc(C)nc(OC)n1.[Na+]` [Iodosulfuron-methyl-sodium (A1-16), iodosulfuron-methyl-sodium], the “% phyto” value stood at 0% in the data set with SB574TL based sugar beet (7 g/ha, 8 days); 0% in the data set on SB574TL based sugar beet (7 g/ha, 14 days); 0% in the data set on SB574TL based sugar beet (7 g/ha, 28 days); 0% with SB574TL based sugar beet (15 gai/ha, 8 DAA); 0% in the data set on SB574TL based sugar beet (15 gai/ha, 17 DAA); 0% in the data set with SB574TL based sugar beet (15 gai/ha, 31 DAA). Further, the “% phyto” value with KLARINA (7 g/ha, 8 days) stood at 90%; in the data set with KLARINA (7 g/ha, 14 days), 97%; with KLARINA (7 g/ha, 28 days), 100%; in the data set on KLARINA (15 gai/ha, 8 DAA), 83%; with KLARINA (15 gai/ha, 17 DAA), 98%; in the data set on KLARINA (15 gai/ha, 31 DAA), 100%. Moreover, the “tolerance of regenerated plants to herbicide treatment” value in data set [1] is reported as “tolerated even the highest herbicide doses”. The “effect of herbicide treatment on wild type plants” value with wild type plants is reported as “killed”.

As for `COC(=O)c1ccc(CNS(C)(=O)=O)cc1S(=O)(=O)NC(=O)Nc1nc(OC)cc(OC)n1` [Mesosulfuron-methyl (A1-17), mesosulfuron-methyl], the “% phyto” value in the data set on KLARINA (60 g/ha, 8 days) is reported as 90%; with KLARINA (60 g/ha, 14 days), 97%; in the data set with KLARINA (60 g/ha, 28 days) it was 99%.

Take `COc1cc(OC)n2nc(S(=O)(=O)Nc3c(Cl)ccc(C)c3Cl)nc2n1` [Metosulam (A3-5), metosulam]: the “% phyto” value was 90% in the data set with KLARINA (30 g/ha, 8 days); 97% in the data set on KLARINA (30 g/ha, 14 days); 93% in the data set with KLARINA (30 g/ha, 28 days).

On to `COC(=O)c1ccccc1S(=O)(=O)NC(=O)Nc1nc(C)nc(OC)n1` [Metsulfuron-methyl (A1-28), metsulfuron-methyl], for which the “% phyto” value was 88% in the data set on KLARINA (8 g/ha, 8 days); 98% in the data set on KLARINA (8 g/ha, 14 days); 99% in the data set with KLARINA (8 g/ha, 28 days).

Turning to `COc1cc(OC)nc(NC(=O)NS(=O)(=O)c2ncccc2C(=O)N(C)C)n1` [Nicosulfuron (A1-20), nicosulfuron], the “% phyto” value in the data set on SB574TL based sugar beet (60 g/ha, 8 days) was 0%; in the data set with SB574TL based sugar beet (60 g/ha, 14 days) it was 0%; with SB574TL based sugar beet (60 g/ha, 28 days), 0%; in the data set with KLARINA (60 g/ha, 8 days) it was 90%; in the data set with KLARINA (60 g/ha, 14 days) it was 98%; with KLARINA (60 g/ha, 28 days), 100%.

Consider `CCS(=O)(=O)c1cccnc1S(=O)(=O)NC(=O)Nc1nc(OC)cc(OC)n1` [Rimsulfuron (A1-26), rimsulfuron], for which the “% phyto” value in the data set on KLARINA (12.5 g/ha, 8 days) stood at 81%; with KLARINA (12.5 g/ha, 14 days), 85%; in the data set with KLARINA (12.5 g/ha, 28 days), 76%.

On to `COC(=O)c1ccccc1S(=O)(=O)NC(=O)Nc1nc(C)cc(C)n1` [Sulfometuron-methyl (A1-27), sulfometuron-methyl], for which the “% phyto” value in the data set with SB574TL based sugar beet (60 g/ha, 8 days (Table 3)) is reported as 0%; in the data set with SB574TL based sugar beet (60 g/ha, 16 days), 3%; in the data set with SB574TL based sugar beet (60 g/ha, 38 days), 0%; with BERETTA (60 g/ha, 8 days), 80%; in the data set on BERETTA (60 g/ha, 16 days), 97%; in the data set with BERETTA (60 g/ha, 38 days), 100%.

With `COC(=O)c1csc(C)c1S(=O)(=O)NC(=O)n1nc(OC)n(C)c1=O` [Thiencarbazone-methyl (A2-3), thiencarbazone-methyl], the “% phyto” value is 90% with KLARINA (15 g/ha, 8 days); 97% with KLARINA (15 g/ha, 14 days); 100% in the data set on KLARINA (15 g/ha, 28 days); 90% in the data set on KLARINA (30 g/ha, 8 days); 97% with KLARINA (30 g/ha, 14 days); 100% with KLARINA (30 g/ha, 28 days).

On to `COC(=O)c1sccc1S(=O)(=O)NC(=O)Nc1nc(C)nc(OC)n1` [Thifensulfuron-methyl (A1-29), thifensulfuron-methyl], for which the “% phyto” value was determined as 90% with KLARINA (7.5 g/ha, 8 days); 98% in the data set on KLARINA (7.5 g/ha, 14 days); 100% in the data set with KLARINA (7.5 g/ha, 28 days).

For `COc1nc(C)nc(NC(=O)NS(=O)(=O)c2ccccc2OCCCl)n1` [Triasulfuron (A1-30), triasulfuron], the “% phyto” value turned out to be 0% in the data set on SB574TL based sugar beet (30 g/ha, 8 days (Table 3)); 0% in the data set with SB574TL based sugar beet (30 g/ha, 16 days); 0% in the data set with SB574TL based sugar beet (30 g/ha, 38 days); 80% with BERETTA (30 g/ha, 8 days); 98% in the data set with BERETTA (30 g/ha, 16 days); 100% in the data set with BERETTA (30 g/ha, 38 days).

With `COC(=O)c1ccccc1S(=O)(=O)NC(=O)N(C)c1nc(C)nc(OC)n1` [Tribenuron-methyl (A1-31), tribenuron-methyl], the “% phyto” value came out at 91% in the data set on KLARINA (30 g/ha, 8 days); 98% in the data set with KLARINA (30 g/ha, 14 days); 100% in the data set on KLARINA (30 g/ha, 28 days).

Regarding `COc1cc(OC)nc(NC(=O)NS(=O)(=O)c2ncccc2OCC(F)(F)F)n1` [Trifloxisulfuron-sodium (A1-32), trifloxysulfuron], the “% phyto” value with SB574TL based sugar beet (15 g/ha, 8 days (Table 3)) came to 0%; in the data set on SB574TL based sugar beet (15 g/ha, 16 days), 0%; in the data set on SB574TL based sugar beet (15 g/ha, 38 days), 0%; with BERETTA (15 g/ha, 8 days) it was 80%; with BERETTA (15 g/ha, 16 days) it was 98%; in the data set with BERETTA (15 g/ha, 38 days) it was 100%.
